{"source": "patent US12268674B2", "about": "“Mi-2β inhibitor as an immunotherapy agent” (BioVentures, LLC, priority 2021, dated 2025)", "key": {"[1]": {"molecular_target": "PRKAG2 (Homo sapiens, UniProt Q9UGJ0)", "test": "ATPase profile (ATP acyl phosphate probe)", "format": "binding", "settings": "PRKAG2, SEQ ID NO: 170, ATP BS"}, "[2]": {"molecular_target": "T1, CLPB (Homo sapiens, UniProt Q9H078)", "T1 construct": "endogenous in cells; host or cells: A375 cell lysate", "test": "ATPase profile (ATP acyl phosphate probe)", "format": "binding", "settings": "SEQ ID NO: 58, ATP BS"}, "[3]": {"molecular_target": "T2, MVK (Homo sapiens, UniProt Q03426)", "T2 construct": "to get the native cell lysate; endogenous in cells; host or cells: A375", "test": "ATPase profile (ATP acyl phosphate probe)", "format": "binding", "settings": "SEQ ID NO: 127, ATP BS"}, "[4]": {"molecular_target": "T3, HNRNPU (Homo sapiens, UniProt Q00839)", "T3 construct": "endogenous in cells; host or cells: A375", "test": "ATPase profile (ATP acyl phosphate probe)", "format": "binding", "settings": "SEQ ID NO: 92, ATP BS"}, "[5]": {"molecular_target": "T4, ABCC3 (Homo sapiens, UniProt O15438)", "T4 construct": "host or cells: A375 cell lysate", "T4 sequence (O15438 whole entry)": "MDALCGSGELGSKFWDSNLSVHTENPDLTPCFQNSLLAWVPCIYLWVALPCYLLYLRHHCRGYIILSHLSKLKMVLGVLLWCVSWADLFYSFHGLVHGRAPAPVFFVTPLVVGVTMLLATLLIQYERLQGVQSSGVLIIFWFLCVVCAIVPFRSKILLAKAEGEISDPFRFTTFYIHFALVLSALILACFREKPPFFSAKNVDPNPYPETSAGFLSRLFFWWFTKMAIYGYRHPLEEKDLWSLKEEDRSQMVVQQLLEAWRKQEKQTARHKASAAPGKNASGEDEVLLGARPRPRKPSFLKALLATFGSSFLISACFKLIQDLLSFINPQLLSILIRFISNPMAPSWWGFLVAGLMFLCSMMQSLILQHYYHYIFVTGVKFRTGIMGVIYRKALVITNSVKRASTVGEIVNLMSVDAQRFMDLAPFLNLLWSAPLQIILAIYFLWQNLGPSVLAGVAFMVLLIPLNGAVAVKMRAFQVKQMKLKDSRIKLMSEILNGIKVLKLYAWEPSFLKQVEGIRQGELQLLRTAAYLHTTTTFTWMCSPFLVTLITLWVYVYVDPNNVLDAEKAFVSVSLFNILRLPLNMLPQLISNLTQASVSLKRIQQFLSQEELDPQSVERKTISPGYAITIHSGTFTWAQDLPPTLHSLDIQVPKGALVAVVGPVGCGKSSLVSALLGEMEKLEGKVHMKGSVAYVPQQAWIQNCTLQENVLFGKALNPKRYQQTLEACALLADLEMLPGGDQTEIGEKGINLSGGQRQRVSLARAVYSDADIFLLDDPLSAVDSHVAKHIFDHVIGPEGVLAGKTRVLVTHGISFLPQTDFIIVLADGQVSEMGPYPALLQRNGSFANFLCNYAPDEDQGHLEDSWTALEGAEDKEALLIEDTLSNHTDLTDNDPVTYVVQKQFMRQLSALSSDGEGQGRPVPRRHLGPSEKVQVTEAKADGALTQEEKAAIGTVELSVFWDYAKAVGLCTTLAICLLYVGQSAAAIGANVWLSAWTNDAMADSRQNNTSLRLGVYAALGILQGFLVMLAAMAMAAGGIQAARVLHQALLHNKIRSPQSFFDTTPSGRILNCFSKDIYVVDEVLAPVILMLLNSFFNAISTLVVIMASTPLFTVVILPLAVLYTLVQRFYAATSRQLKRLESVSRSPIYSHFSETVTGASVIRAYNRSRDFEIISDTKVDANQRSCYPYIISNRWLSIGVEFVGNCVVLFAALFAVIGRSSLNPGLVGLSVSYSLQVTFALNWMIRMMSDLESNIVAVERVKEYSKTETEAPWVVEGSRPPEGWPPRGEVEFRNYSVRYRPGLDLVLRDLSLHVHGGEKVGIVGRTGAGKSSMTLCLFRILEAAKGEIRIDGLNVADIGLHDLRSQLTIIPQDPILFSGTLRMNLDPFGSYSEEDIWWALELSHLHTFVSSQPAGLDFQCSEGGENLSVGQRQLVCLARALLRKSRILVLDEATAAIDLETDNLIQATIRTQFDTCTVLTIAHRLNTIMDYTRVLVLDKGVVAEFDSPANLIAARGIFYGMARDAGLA", "test": "ATPase profile (ATP acyl phosphate probe)", "format": "binding"}, "[6]": {"molecular_target": "T5, NVL (Homo sapiens, UniProt O15381)", "T5 construct": "to get the native cell lysate; endogenous in cells; host or cells: A375", "T5 sequence (O15381 whole entry)": "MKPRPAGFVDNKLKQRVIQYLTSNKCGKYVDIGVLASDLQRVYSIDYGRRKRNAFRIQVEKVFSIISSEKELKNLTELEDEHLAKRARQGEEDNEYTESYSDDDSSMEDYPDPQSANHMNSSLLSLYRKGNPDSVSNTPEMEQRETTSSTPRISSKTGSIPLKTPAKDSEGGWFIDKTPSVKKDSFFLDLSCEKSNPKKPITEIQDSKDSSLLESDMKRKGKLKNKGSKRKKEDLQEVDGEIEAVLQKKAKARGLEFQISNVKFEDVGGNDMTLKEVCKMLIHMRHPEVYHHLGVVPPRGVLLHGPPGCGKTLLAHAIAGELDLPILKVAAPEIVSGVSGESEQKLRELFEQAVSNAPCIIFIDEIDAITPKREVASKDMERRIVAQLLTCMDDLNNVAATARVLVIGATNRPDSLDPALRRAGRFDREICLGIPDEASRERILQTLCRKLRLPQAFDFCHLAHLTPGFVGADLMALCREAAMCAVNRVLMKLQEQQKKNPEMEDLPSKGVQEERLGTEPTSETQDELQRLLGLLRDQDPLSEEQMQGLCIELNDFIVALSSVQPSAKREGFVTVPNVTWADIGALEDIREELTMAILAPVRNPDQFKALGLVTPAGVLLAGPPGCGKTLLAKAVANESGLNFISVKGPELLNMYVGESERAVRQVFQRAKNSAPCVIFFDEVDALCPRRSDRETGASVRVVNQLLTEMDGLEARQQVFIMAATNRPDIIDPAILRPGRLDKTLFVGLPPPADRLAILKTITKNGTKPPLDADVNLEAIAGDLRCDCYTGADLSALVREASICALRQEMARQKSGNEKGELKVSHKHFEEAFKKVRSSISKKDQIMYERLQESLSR", "test": "ATPase profile (ATP acyl phosphate probe)", "format": "binding"}, "[7]": {"molecular_target": "T6, HSPA2 (Homo sapiens, UniProt P54652)", "T6 construct": "to get the native cell lysate; endogenous in cells; host or cells: A375", "T6 sequence (P54652 whole entry)": "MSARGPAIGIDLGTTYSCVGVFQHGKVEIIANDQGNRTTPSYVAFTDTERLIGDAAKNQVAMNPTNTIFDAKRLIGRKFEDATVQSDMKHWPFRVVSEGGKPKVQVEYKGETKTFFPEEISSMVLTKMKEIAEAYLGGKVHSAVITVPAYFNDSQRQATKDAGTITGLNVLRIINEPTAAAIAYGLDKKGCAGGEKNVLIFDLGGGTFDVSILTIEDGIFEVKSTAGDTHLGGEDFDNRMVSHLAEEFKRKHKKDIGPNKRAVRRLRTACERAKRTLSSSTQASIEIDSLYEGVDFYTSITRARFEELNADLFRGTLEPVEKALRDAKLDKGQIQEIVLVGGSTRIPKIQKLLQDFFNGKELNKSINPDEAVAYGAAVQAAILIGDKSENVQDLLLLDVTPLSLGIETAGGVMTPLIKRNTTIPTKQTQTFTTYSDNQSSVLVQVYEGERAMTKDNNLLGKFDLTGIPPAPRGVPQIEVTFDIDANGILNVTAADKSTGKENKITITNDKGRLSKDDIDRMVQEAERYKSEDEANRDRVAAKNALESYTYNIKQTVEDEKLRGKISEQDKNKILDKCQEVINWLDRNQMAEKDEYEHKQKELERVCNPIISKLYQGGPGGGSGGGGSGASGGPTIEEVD", "test": "ATPase profile (ATP acyl phosphate probe)", "format": "binding"}, "[8]": {"molecular_target": "T7, PSMC5 (Homo sapiens, UniProt P62195)", "T7 construct": "to get the native cell lysate; endogenous in cells; host or cells: A375 cell lysate", "test": "ATPase profile (ATP acyl phosphate probe)", "format": "binding", "settings": "PSMC5, SEQ ID NO: 177, ATP BS"}, "[9]": {"molecular_target": "T8, AK3 (Homo sapiens, UniProt Q9UIJ7)", "T8 construct": "to get the native cell lysate; host or cells: A375 cell lysate", "T8 sequence (Q9UIJ7 whole entry)": "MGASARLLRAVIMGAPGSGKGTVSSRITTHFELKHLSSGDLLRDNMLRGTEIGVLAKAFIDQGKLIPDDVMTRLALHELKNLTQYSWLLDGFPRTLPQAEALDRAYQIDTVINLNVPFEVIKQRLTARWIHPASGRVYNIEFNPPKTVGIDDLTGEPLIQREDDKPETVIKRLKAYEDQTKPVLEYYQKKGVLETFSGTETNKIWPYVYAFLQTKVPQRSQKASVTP", "test": "ATPase profile (ATP acyl phosphate probe)", "format": "binding", "settings": "AK3, SEQ ID NO: 34, ATP BS"}, "[10]": {"molecular_target": "T9, TOR4A (Homo sapiens, UniProt Q9NXH8)", "T9 construct": "to get the native cell lysate; endogenous in cells; host or cells: A375 cell lysate", "test": "ATPase profile (ATP acyl phosphate probe)", "format": "binding", "settings": "SEQ ID NO: 207, ATP BS"}, "[11]": {"molecular_target": "T10, HSP90AA (Homo sapiens, UniProt P07900)", "T10 construct": "to get the native cell lysate; endogenous in cells; host or cells: A375", "test": "ATPase profile (ATP acyl phosphate probe)", "format": "binding", "settings": "SEQ ID NO: 95, ATP BS"}, "[12]": {"molecular_target": "T11, DERA (Homo sapiens, UniProt Q9Y315)", "T11 construct": "endogenous in cells; host or cells: A375 cell lysate", "test": "ATPase profile (ATP acyl phosphate probe)", "format": "binding", "settings": "SEQ ID NO: 71, ATP BS"}, "[13]": {"molecular_target": "T12, TOR1A (Homo sapiens, UniProt O14656)", "T12 construct": "to get the native cell lysate; endogenous in cells; host or cells: A375 cell lysate", "test": "ATPase profile (ATP acyl phosphate probe)", "format": "binding", "settings": "SEQ ID NO: 203, ATP BS"}, "[14]": {"molecular_target": "T13, UBA6 (Homo sapiens, UniProt A0AVT1)", "T13 construct": "to get the native cell lysate; endogenous in cells; host or cells: A375 cell lysate", "test": "ATPase profile (ATP acyl phosphate probe)", "format": "binding", "settings": "UBA6, SEQ ID NO: 222, ATP BS"}, "[15]": {"molecular_target": "T14, DYNC1H1 (Homo sapiens, UniProt Q14204)", "T14 construct": "endogenous in cells; host or cells: A375 cell lysate", "test": "ATPase profile (ATP acyl phosphate probe)", "format": "binding"}, "[16]": {"tested_on": "PRKAG1, PRKAG2", "test": "ATPase profile (ATP acyl phosphate probe)", "format": "binding", "settings": "PRKAG1, PRKAG2, SEQ ID NO: 169, ATP BS"}, "[17]": {"molecular_target": "T15, CCT5 (Homo sapiens, UniProt P48643)", "T15 construct": "to get the native cell lysate; host or cells: A375 cell lysate", "test": "ATPase profile (ATP acyl phosphate probe)", "format": "binding", "settings": "CCT5, SEQ ID NO: 54, ATP BS"}, "[18]": {"molecular_target": "T16, ABCF2 (Homo sapiens, UniProt Q9UG63)", "T16 construct": "to get the native cell lysate; host or cells: A375 cell lysate", "T16 sequence (Q9UG63 whole entry)": "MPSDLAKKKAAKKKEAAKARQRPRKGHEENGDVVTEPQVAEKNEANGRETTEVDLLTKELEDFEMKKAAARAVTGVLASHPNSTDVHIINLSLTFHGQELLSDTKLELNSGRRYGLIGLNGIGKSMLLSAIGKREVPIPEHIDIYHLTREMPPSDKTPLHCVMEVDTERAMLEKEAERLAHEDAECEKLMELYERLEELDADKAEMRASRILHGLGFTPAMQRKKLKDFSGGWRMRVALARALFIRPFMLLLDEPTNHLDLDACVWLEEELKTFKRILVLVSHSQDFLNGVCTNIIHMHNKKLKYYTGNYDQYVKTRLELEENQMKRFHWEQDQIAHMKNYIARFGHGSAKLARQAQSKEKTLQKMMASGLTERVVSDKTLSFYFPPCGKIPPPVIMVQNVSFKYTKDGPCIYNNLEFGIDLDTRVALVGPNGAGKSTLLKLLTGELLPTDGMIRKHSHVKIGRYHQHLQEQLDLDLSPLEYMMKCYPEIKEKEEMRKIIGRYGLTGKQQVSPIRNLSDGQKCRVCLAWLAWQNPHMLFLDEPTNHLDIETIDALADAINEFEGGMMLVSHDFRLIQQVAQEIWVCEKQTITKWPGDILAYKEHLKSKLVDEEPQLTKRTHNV", "test": "ATPase profile (ATP acyl phosphate probe)", "format": "binding"}, "[19]": {"tested_on": "Mi-2β target gene expression in B16F10 cells", "test": "RT-qPCR of Mi-2β target genes in B16F10 cells treated with Z36-MP5", "format": "cell-based, mouse", "settings": "25 μM, 24 hours", "experimental": "Z36-MP5 was chosen for further validation and experimental therapeutics in vivo. […] To investigate its cellular inhibitory activity, B16-F10 cells were treated with Z36-MP5 at concentrations ranging from 5 to 100 μM, and the activation of Mi-2β target genes measured by RT-qPCR. Z36-MP5 at 25 μM induced Mi-2β target gene expression including Cxc9, Cxcl10 and Irf1 (FIG. 11c) in B16F10 cells. We also performed the co-culture assays of B16F10 cells with activated Pmel-1 T cells to identify whether Z36-MP5 stimulation can activate T cell mediated cytotoxicity. […] In addition, the pharmacokinetic properties of Z36-MP5 in Sprague-Dawley rats with administration of intraperitoneal injection dose of 1.0 mg/kg.\nThe total RNA was extracted with QIAGEN RNeasy kit […] for cDNA synthesis with SuperScript II Reverse Transcriptase (Invitrogen). In total, 40 ng cDNA was used for quantitative real-time PCR amplification by TaqMan Gene Expression Master Mix (Thermo Fisher Scientific). The relative transcript levels were normalized with GAPDH expression. The data were calculated with the comparative CT method."}, "[20]": {"molecular_target": "PSMC4 (Homo sapiens, UniProt P43686)", "test": "ATPase profile (ATP acyl phosphate probe)", "format": "binding", "settings": "PSMC4, SEQ ID NO: 176, ATP BS"}, "[21]": {"molecular_target": "T17, AFG3L2 (Homo sapiens, UniProt Q9Y4W6)", "T17 construct": "to get the native cell lysate; host or cells: A375 cell lysate", "test": "ATPase profile (ATP acyl phosphate probe)", "format": "binding", "settings": "AFG3L2, SEQ ID NO: 29, ATP BS"}, "[22]": {"molecular_target": "T18, TRA1 (Homo sapiens, UniProt P14625)", "T18 construct": "to get the native cell lysate; endogenous in cells; host or cells: A375 cell lysate", "test": "ATPase profile (ATP acyl phosphate probe)", "format": "binding", "settings": "TRA1, SEQ ID NO: 208, ATP BS"}, "[23]": {"tested_on": "NME1, NME2", "test": "ATPase profile (ATP acyl phosphate probe)", "format": "binding", "settings": "NME1, NME2, SEQ ID NO: 133, ATP BS"}, "[24]": {"molecular_target": "T19, GATB (Homo sapiens, UniProt O75879)", "T19 construct": "endogenous in cells; host or cells: A375 cell lysate", "T19 sequence (O75879 31-557)": "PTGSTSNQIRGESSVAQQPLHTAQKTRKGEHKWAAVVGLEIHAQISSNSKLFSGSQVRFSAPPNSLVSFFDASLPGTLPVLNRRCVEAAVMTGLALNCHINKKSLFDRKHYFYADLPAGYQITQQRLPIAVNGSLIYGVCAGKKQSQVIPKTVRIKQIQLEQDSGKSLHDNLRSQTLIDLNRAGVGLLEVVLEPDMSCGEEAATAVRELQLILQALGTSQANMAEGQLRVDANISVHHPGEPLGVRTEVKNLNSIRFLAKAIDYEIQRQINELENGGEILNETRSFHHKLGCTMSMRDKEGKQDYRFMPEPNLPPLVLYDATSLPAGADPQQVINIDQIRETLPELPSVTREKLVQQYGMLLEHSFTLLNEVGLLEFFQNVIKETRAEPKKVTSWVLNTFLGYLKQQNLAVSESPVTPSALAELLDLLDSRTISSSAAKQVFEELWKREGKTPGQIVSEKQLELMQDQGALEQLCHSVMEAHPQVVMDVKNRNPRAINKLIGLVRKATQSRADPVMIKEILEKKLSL", "T19 sequence (Q9H0R6 whole entry partner)": "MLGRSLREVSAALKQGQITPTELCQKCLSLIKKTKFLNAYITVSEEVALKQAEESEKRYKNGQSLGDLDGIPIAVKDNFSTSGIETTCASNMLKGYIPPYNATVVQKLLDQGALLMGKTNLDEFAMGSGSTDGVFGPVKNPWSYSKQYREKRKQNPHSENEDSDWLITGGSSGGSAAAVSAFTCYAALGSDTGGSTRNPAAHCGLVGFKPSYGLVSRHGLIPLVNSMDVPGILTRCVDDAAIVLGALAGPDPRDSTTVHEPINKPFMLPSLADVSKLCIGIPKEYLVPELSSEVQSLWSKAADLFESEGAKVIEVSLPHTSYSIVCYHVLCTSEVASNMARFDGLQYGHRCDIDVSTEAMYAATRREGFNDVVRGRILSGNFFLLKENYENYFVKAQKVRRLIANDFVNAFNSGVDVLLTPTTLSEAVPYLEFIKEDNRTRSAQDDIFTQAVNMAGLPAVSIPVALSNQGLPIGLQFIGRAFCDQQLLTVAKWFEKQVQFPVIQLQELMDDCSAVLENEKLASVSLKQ", "T19 sequence (O43716 58-136 partner)": "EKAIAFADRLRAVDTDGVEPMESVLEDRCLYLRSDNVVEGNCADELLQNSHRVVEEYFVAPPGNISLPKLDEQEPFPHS", "test": "ATPase profile (ATP acyl phosphate probe)", "format": "binding"}, "[25]": {"molecular_target": "T20, PRPS1 (Homo sapiens, UniProt P60891)", "T20 construct": "endogenous in cells; host or cells: A375 cell lysate", "test": "ATPase profile (ATP acyl phosphate probe)", "format": "binding", "settings": "PRPS1, SEQ ID NO: 171, ATP BS"}}, "data": [{"smiles": "Cn1c(=O)[nH]c2ccc(-c3cccc(C(=O)NC4CCn5ccnc5C4)c3)cc21", "note": "(stereo not shown) [Z36-MP5, 3-(3-methyl-2-oxo-2,3-dihydro-1H-benzo[d]imidazol-5-yl)-N-(5,6,7,8-tetrahydroimidazo[1,2-a]pyridin-7-yl)benzamide]", "values": [{"measurement": "Inhibition (%) by 1 μM Z36-MP5", "setting": "[1]", "result": "−22.54", "unit": "%"}, {"measurement": "Inhibition (%) by 1 μM Z36-MP5", "setting": "[2]", "result": "−9.00", "unit": "%"}, {"measurement": "Inhibition (%) by 1 μM Z36-MP5", "setting": "[3]", "result": 15.38, "unit": "%"}, {"measurement": "Inhibition (%) by 1 μM Z36-MP5", "setting": "[4]", "result": 6.85, "unit": "%"}, {"measurement": "Inhibition (%) by 1 μM Z36-MP5", "setting": "[5]; ABCC3, SEQ ID NO: 9, ATP BS", "result": 4.57, "unit": "%"}, {"measurement": "Inhibition (%) by 1 μM Z36-MP5", "setting": "[5]; ABCC3, SEQ ID NO: 10, ATP BS", "result": 9.43, "unit": "%"}, {"measurement": "Inhibition (%) by 1 μM Z36-MP5", "setting": "[6]; SEQ ID NO: 148, ATP BS", "result": "−1.13", "unit": "%"}, {"measurement": "Inhibition (%) by 1 μM Z36-MP5", "setting": "[6]; SEQ ID NO: 149, ATP BS", "result": "−8.26", "unit": "%"}, {"measurement": "Inhibition (%) by 1 μM Z36-MP5", "setting": "[7]; HSPA2, SEQ ID NO: 102, ATP BS", "result": "−1.50", "unit": "%"}, {"measurement": "Inhibition (%) by 1 μM Z36-MP5", "setting": "[7]; HSPA2, SEQ ID NO: 103, ATP BS", "result": "−5.18", "unit": "%"}, {"measurement": "Inhibition (%) by 1 μM Z36-MP5", "setting": "[8]", "result": "−3.98", "unit": "%"}, {"measurement": "Inhibition (%) by 1 μM Z36-MP5", "setting": "[9]", "result": 19.58, "unit": "%"}, {"measurement": "Inhibition (%) by 1 μM Z36-MP5", "setting": "[10]", "result": 5.38, "unit": "%"}, {"measurement": "Inhibition (%) by 1 μM Z36-MP5", "setting": "[11]", "result": "−1.29", "unit": "%"}, {"measurement": "Inhibition (%) by 1 μM Z36-MP5", "setting": "[12]", "result": 6.01, "unit": "%"}, {"measurement": "Inhibition (%) by 1 μM Z36-MP5", "setting": "[13]", "result": 4.27, "unit": "%"}, {"measurement": "Inhibition (%) by 1 μM Z36-MP5", "setting": "[14]", "result": 3.60, "unit": "%"}, {"measurement": "Inhibition (%) by 1 μM Z36-MP5", "setting": "[15]; DYNC1H1, SEQ ID NO: 74, ATP BS", "result": "−1.99", "unit": "%"}, {"measurement": "Inhibition (%) by 1 μM Z36-MP5", "setting": "[15]; DYNC1H1, SEQ ID NO: 75, ATP BS", "result": 0.38, "unit": "%"}, {"measurement": "Inhibition (%) by 1 μM Z36-MP5", "setting": "[16]", "result": "−7.97", "unit": "%"}, {"measurement": "Inhibition (%) by 1 μM Z36-MP5", "setting": "[17]", "result": "−2.48", "unit": "%"}, {"measurement": "Inhibition (%) by 1 μM Z36-MP5", "setting": "[18]; ABCF2, SEQ ID NO: 17, ATP BS", "result": "−7.92", "unit": "%"}, {"measurement": "Inhibition (%) by 1 μM Z36-MP5", "setting": "[18]; ABCF2, SEQ ID NO: 18, ATP BS", "result": 26.88, "unit": "%"}, {"measurement": "Mi-2β target gene expression including Cxc9, Cxcl10 and Irf1", "setting": "[19]", "result": "induced"}, {"measurement": "Inhibition (%) by 1 μM Z36-MP5", "setting": "[20]", "result": 13.36, "unit": "%"}, {"measurement": "Inhibition (%) by 1 μM Z36-MP5", "setting": "[21]", "result": "−4.85", "unit": "%"}, {"measurement": "Inhibition (%) by 1 μM Z36-MP5", "setting": "[22]", "result": "−8.56", "unit": "%"}, {"measurement": "Inhibition (%) by 1 μM Z36-MP5", "setting": "[23]", "result": "−1.52", "unit": "%"}, {"measurement": "Inhibition (%) by 1 μM Z36-MP5", "setting": "[24]; SEQ ID NO: 83, ATP BS", "result": "−15.35", "unit": "%"}, {"measurement": "Inhibition (%) by 1 μM Z36-MP5", "setting": "[24]; SEQ ID NO: 84, ATP BS", "result": "−4.32", "unit": "%"}, {"measurement": "Inhibition (%) by 1 μM Z36-MP5", "setting": "[25]", "result": "−22.26", "unit": "%"}]}]}
